# Assay results: patent publication US20250064886A1, “CARDIOVASCULAR AND CEREBROVASCULAR DRUG AND USE THEREOF” (HANGZHOU ADAMERCK PHARMLABS INC., priority 2021, published 2025)
# Marks after values point to notes of the source that are not given here.
# Tests used:
# [1] = tested on: Erastin-induced neuronal cells; assay: Cell viability (CCK8) of Erastin-induced neuronal cells (Example 8); assay type: cell-based, rat; settings: Erastin 50 μM
# Description: (§1) Experimental method: Primary neuron cells were incubated in a medium containing Erastin (final concentration of 50 μM) for 24 hours, and then incubated in a medium containing different concentrations of the test drug and Erastin (final concentration of 50 μM) for another 24 hours. After incubation, Real time PCR was used to detect mRNA expression of GPX4 in each group of cells, CCK8 assay was used to detect cell viability in each group of cells, C11-BODIPY probe method was used to detect intracellular lipid ROS levels in each group of cells, and PGSK probe method was used to detect iron content in cells.
# (§2) The experimental data were expressed in means±SD, and statistical differences between groups were determined using one-way ANOVA and Tukey's test, with p-values less than 0.05 considered significant.
# After incubation, the CCK8 experiment was used to detect the cell viability of each group of cells. The results were presented as Mean±SD. Compared with control group, ***p<0.0001. Compared with model control group, ^#P<0.05, ^##P<0.01.
# [2] = tested on: iron content in Erastin-induced neuronal cells; assay: Iron content (PGSK probe) in Erastin-induced neuronal cells (Example 8); assay type: cell-based, rat; settings: Erastin 50 μM
# Description: as §1, §2
# After incubation, the PGSK probe method was used to detect the intracellular iron content. The results were presented as Mean±SD. Compared with the control group, ***p<0.0001; Compared with the model group, #p<0.05, ##p<0.01.
# [3] = tested on: lipid ROS levels in Erastin-induced nerve cells; assay: Lipid ROS levels (C11-BODIPY probe) in Erastin-induced nerve cells (Example 8); assay type: cell-based, rat; settings: Erastin 50 μM
# Description: as §1, §2
# After incubation, the C11-BODIPY probe method was used to detect the lipid ROS levels in each group of cells. The results were presented as Mean±SD. Compared with the control group, ***p<0.0001; compared with the model group, #p<0.05, ##p<0.01.
# [4] = tested on: vascular inflammation in high-glucose and high-fat zebrafish; assay: Regressive effect on vascular inflammation in high-glucose and high-fat zebrafish (Example 9); assay type: in vivo
# Description: Experimental method: 360 tails of 5 dpf macrophage fluorescent zebrafish were randomly selected and placed in beakers with 30 tails in each beaker, compound (1), compound (3), and compound (5) were given intravenously, and the positive control group was given atorvastatin calcium by dissolving it in water at a concentration of 30 μg/mL, while the normal control group (fish farming water-treated zebrafish) and the model control group were set up, and the volume of each beaker (experimental group) was 25 mL. Except for the normal control group, all other groups were given high-lipids and high-sucrose feed by dissolving it in water. Compound (1), compound (3) and compound (5) group were co-treated with high-lipids and high-sucrose feed for 30 h. The treatment was carried out up to 9 dpf, and 10 zebrafish were randomly selected from each experimental group to collect the intensity of the macrophage fluorescence within the tail vein and around the tail vein of the zebrafish under fluorescence microscope, and the results of the statistical analysis were used to evaluate the regressive effect of compound (1), compound (3), compound (5) on zebrafish vascular inflammation in the high sugar and high fat model.
# [5] = tested on: vascular endothelial injury induced thrombosis model in zebrafish; assay: Preventative effect on vascular endothelial injury induced thrombosis, ponatinib zebrafish model (Example 1); assay type: in vivo; settings: 4.00 ng/tail injected
# Description: Experimental method: 420 tails of 5 dpf wild type AB strain zebrafish were randomly selected and placed in a six-well plate, with 30 fish per well (experimental group). The fish were injected with compound (1), compound (2), compound (3), compound (4), compound (5), compound (6), compound (7), compound (8), compound (9), compound (10), and compound (11) (structural formula shown in Table 1) at a dose of 4.00 ng/tail, with positive control drug acetylsalicylic acid being administered by dissolving it in water at a concentration of 30.0 µg/mL. Normal control group (i.e. zebrafish treated with standard diluted water) and model control group were set up, with a capacity of 3 mL per well (experimental group). Except for normal control group, the remaining experimental groups were all given Punatinib by dissolving it in water to induce vascular endothelial injury induced thrombosis model in zebrafish. The zebrafish were stained with o-dianisidine after co-treatment with ponatinib and samples for a period of time under incubation conditions at 28° C.
# After staining, 10 zebrafish in each group were randomly selected and photographed under the microscope, and the intensity of cardiac erythrocyte staining in zebrafish was analyzed using NIS-Elements D 3.20 advanced image-processing software, and the samples were evaluated for the preventative effect on vascular endothelial injury induced thrombosis by the statistical results of cardiac erythrocyte staining intensity.
# The preventative effect on thrombosis is calculated as follows: […]
# Statistical analysis was performed using SPSS software, and p<0.05 indicates significant differences
# GPX4 mRNA = GPX4 mRNA expression (real time PCR) in Erastin-induced neuronal cells (Example 8); assay type: cell-based, rat; settings: Erastin 50 μM
# Description: as §1, §2
# After incubation, real time PCR was used to detect the mRNA expression of GPX4 in each group of cells. The results were presented as Mean±SD. Compared with the control group, ***p<0.0001; Compared with the model group, #p<0.05, […].
# [6] = tested on: rats with focal cerebral ischemia (MCAO)/reperfusion; assay: Therapeutic administration, cerebral ischemia-reperfusion injury MCAO/R in rats (Example 7); assay type: in vivo, rat; settings: 6 mg/kg i.v. once 1 h after reperfusion
# Description: Experimental method: SD rats were randomly divided into 11 groups, including pseudosurgery group, a model control group, positive control drug edaravone via intravenous injection (6 mg/kg, i.v.) group, positive control drug butylphthalide injection via intravenous injection (5 mg/kg, i.v.) group, compound (1) high-dose (24 mg/kg, i.v.), medium-dose (12 mg/kg, i.v.), low-dose (6 mg/kg, i.v.) via intravenous injection group, positive drug butylphthalide soft capsule via intragastric administration (60 mg/kg, i.g.) group, and compound via intragastric administration at (1) high-dose (60 mg/kg, i.g.), medium-dose (30 mg/kg, i.g.), low-dose (15 mg/kg, i.g.) group. A middle cerebral artery occlusion (MCAO) model for cerebral ischemia-reperfusion of male rats was prepared using the internal carotid suture-occluded method with an ischemic time of 90 min followed by reperfusion. Injection and oral administration for once were performed 1 h after reperfusion, and neurobehavioral scoring was performed on rats after 24 h to determine neurological function in rats; the cerebral infarction rate and cerebral water content of rats were determined by 2,3,5-triphenyltetrazolium chloride (TTC) staining.
smiles,measurement,setting,value
CC(=O)N[C@H](CSCC1OC2OC3C(CSC[C@@H](NC(C)=O)C(=O)[O-])OC(OC4C(CSC[C@@H](NC(C)=O)C(=O)[O-])OC(OC5C(CSC[C@@H](NC(C)=O)C(=O)[O-])OC(OC6C(CSC[C@@H](NC(C)=O)C(=O)[O-])OC(OC7C(CSC[C@@H](NC(C)=O)C(=O)[O-])OC(OC8C(CSC[C@@H](NC(C)=O)C(=O)[O-])OC(OC1C(O)C2O)C(O)C8O)C(O)C7O)C(O)C6O)C(O)C5O)C(O)C4O)C(O)C3O)C(=O)[O-].[Na+].[Na+].[Na+].[Na+].[Na+].[Na+].[Na+] (stereo partly drawn) [Compound (5)],Cell viability (%),"[1]; 1 μM, 24 h, control = 100, Mean±SD",58.95 ± 7.21%
same,Cell viability (%),[1]; 2.5 μM,62.63 ± 7.82%
same,Cell viability (%),[1]; 5 μM,67.38 ± 6.73%
same,Cell viability (%),[1]; 10 μM,73.74 ± 7.33^# %
same,Cell viability (%),[1]; 20 μM,79.85 ± 6.34^## %
same,Cell viability (%),[1]; 40 μM,84.2 ± 4.71^## %
same,Iron content (PGSK probe),"[2]; 1 μM, control = 100, PGSK fluorescence, weaker = more iron",56.75 ± 9.31^
same,Iron content (PGSK probe),[2]; 2.5 μM,68.32 ± 6.01^
same,Iron content (PGSK probe),[2]; 5 μM,72.65 ± 7
same,Iron content (PGSK probe),[2]; 10 μM,76.52 ± 7.86^#
same,Iron content (PGSK probe),[2]; 20 μM,80.28 ± 6.96^##
same,Iron content (PGSK probe),[2]; 40 μM,87.37 ± 9.57^##
same,Lipid ROS levels (%),"[3]; 1 μM, control = 100, Mean±SD",145.89 ± 5.33%
same,Lipid ROS levels (%),[3]; 2.5 μM,141.47 ± 6.53%
same,Lipid ROS levels (%),[3]; 5 μM,133.09 ± 9.69%
same,Lipid ROS levels (%),[3]; 10 μM,128.99 ± 9.84^# %
same,Lipid ROS levels (%),[3]; 20 μM,122.71 ± 8.5^## %
same,Lipid ROS levels (%),[3]; 40 μM,114.82 ± 7.13^## %
same,Anti-inflammatory effect (%),[4]; 27.8 ng/tail intravenous,38*** %
same,"Fluorescence intensity of perivascular macrophage (pixels, Mean ± SE)",[4]; 27.8 ng/tail intravenous,113678 ± 4811 pixels
same,Anti-inflammatory effect (%),[4]; 83.3 ng/tail intravenous,36*** %
same,"Fluorescence intensity of perivascular macrophage (pixels, Mean ± SE)",[4]; 83.3 ng/tail intravenous,118039 ± 9198 pixels
same,Anti-inflammatory effect (%),[4]; 250 ng/tail intravenous,37*** %
same,"Fluorescence intensity of perivascular macrophage (pixels, Mean ± SE)",[4]; 250 ng/tail intravenous,115627 ± 5934 pixels
same,Preventative effect on thrombosis (%),[5],64%
same,"Cardiac erythrocyte staining intensity (pixels, mean ± SE)",[5]; n = 10,4340 ± 255 pixels
same,"Cardiac erythrocyte staining intensity (pixels, mean ± SE)","[5]; n = 10, listed as compound (5)",4340 pixels
same,Expression of GPX4 mRNA,"GPX4 mRNA; 1 μM, control about 1.00, Mean±SD",0.4777 ± 0.07^
same,Expression of GPX4 mRNA,GPX4 mRNA; 2.5 μM,0.5373 ± 0.08^
same,Expression of GPX4 mRNA,GPX4 mRNA; 5 μM,0.6033 ± 0.06^#
same,Expression of GPX4 mRNA,GPX4 mRNA; 10 μM,0.6942 ± 0.01^##
same,Expression of GPX4 mRNA,GPX4 mRNA; 20 μM,0.7693 ± 0.1^##
same,Expression of GPX4 mRNA,GPX4 mRNA; 40 μM,0.8368 ± 0.07^##
"CC1=NN(c2ccccc2)C(=O)C1 [Edaravone, edaravone, reference compound]",Behavioral score,[6],1.62 ± 0.51
same,Cerebral water content (%),[6],79.81 ± 1.03 %
same,Cerebral infarction rate (%),"[6]; after 24 h, mean ± SD, n = 8",10.23 ± 7.87 %
